Measurements published in patent US10124004B2, “Pyrido[3,4-d]pyrimidine derivative and pharmaceutically acceptable salt thereof” (Teijin Pharma Limited, priority 2015, dated 2018).
Where two headings read alike, the source gives them in different places.

How the values were obtained:
[1] = target: T1, CDK4/cyclin D3 (Homo sapiens, UniProt P11802); assay: Human CDK4/cyclin D3 inhibitory activity (QS S Assist CDK4/Cyclin D3_FP Kit, IMAP fluorescence polarization); type: biochemical
T1 construct: purchased Carna Biosciences, Inc. QS S Assist CDK4/Cyclin D3_FP Kit
Procedure, shortened: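 IMAP fluorescence-polarization kinase assay with kit ATP/substrate/metal mix and 12.5 to 25 ng/well enzyme in 20 mM HEPES pH 7.4, 0.01% Tween20, 2 mM DTT. Reaction ran 45 min at room temperature, then binding reagent was added for 30 min in the dark. IC50 was taken from dose-response fits of percent inhibition.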

[2] = target: T2, CDK2/cyclin A2 (Homo sapiens, UniProt P24941); assay: Human CDK2/cyclin A2 inhibitory activity (QS S Assist CDK2/Cyclin A2_FP Kit, IMAP fluorescence polarization); type: biochemical
T2 construct: purchased Carna Biosciences, Inc. QS S Assist CDK2/Cyclin A2_FP Kit
Procedure, shortened: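 Kinase activity read as fluorescence polarization (485/535 nm) after phosphorylated fluorescent substrate binds IMAP reagent (30 min, RT, dark). Enzyme (2.5 ng/well) reacted 60 min at RT with ATP/substrate/metal in HEPES pH 7.4 buffer with Tween 20 and DTT; no-enzyme wells define 0% activity; IC50 by curve fit.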

[3] = 50% inhibitory concentration against CDK4/cyclin D3, given as class symbol
[4] = 50% inhibitory concentration against CDK2/cyclin A2, given as class symbol
[5] = Human CDK4/cyclin D3 inhibitory activity, read-out: CDK4 Activity symbol
[6] = Human CDK2/cyclin A2 inhibitory activity, read-out: CDK2 Activity symbol

T1 sequence (P11802 whole entry): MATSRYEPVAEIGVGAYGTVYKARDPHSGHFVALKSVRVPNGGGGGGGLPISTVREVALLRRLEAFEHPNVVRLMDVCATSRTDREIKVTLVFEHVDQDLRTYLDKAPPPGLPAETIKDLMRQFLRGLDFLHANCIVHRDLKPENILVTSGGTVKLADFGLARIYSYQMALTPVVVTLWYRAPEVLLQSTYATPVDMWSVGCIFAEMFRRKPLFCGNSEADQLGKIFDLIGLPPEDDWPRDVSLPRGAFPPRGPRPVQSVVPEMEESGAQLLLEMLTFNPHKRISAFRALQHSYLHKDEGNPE
T1 sequence (P30281 whole entry partner): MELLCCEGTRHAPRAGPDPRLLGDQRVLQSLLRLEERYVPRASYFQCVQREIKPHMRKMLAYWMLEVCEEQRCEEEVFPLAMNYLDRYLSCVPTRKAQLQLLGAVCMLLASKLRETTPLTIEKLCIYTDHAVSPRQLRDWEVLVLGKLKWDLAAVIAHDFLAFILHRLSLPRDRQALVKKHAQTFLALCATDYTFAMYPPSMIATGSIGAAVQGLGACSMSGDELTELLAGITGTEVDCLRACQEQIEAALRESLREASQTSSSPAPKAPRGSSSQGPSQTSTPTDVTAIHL

| Structure (SMILES) | IC50 [1, 3] [nM] | IC50 [2, 4] [nM] | IC50 [1, 5] [nM] | IC50 [2, 6] [nM] |
| --- | --- | --- | --- | --- |
| CCCNc1nc([C@@H](C)O)cc2cnc(Nc3ccc(N4CCNCC4=O)cn3)nc12 [Compound 814] | < 10 | ≥ 100 | – | – |
| CC(C)Nc1nc([C@@H](C)O)cc2cnc(Nc3ccc(CCCN4CCOCC4=O)cn3)nc12 [Compound 229] | – | – | < 10 | ≥ 100 |
| CCNc1nc([C@@H](C)O)cc2cnc(Nc3ccc(N4CCN(C)CC4)nn3)nc12 [Compound 980] | < 10 | ≥ 100 | – | – |
| CC(C)Nc1nc([C@@H](C)O)cc2cnc(Nc3ccc(N4CCNCC4C(F)(F)F)nn3)nc12 (some centres unmarked) [Compound 863] | < 10 | ≥ 100 | – | – |
| CC(C)Nc1nc([C@@H](C)O)cc2cnc(Nc3ccc(N4CCN(CC(F)(F)F)CC4)nn3)nc12 [Compound 963] | < 10 | ≥ 100 | – | – |
| CC(C)Nc1nc(C(C)O)cc2cnc(Nc3ccc(C4CCNCC4)cn3)nc12 (centres unmarked) [Compound 78] | – | – | < 10 | ≥ 100 |
| COCC(C)(C)Nc1nc([C@@H](C)O)cc2cnc(Nc3cnc(N4CCNCC4)cn3)nc12 [Compound 373] | – | – | < 10 | ≥ 100 |
| CO[C@H](C)c1cc2cnc(Nc3ccc(C4CCN(C(C)=O)CC4)cn3)nc2c(NC(C)C)n1 [Compound 224] | – | – | < 10 | ≥ 100 |
| CO[C@H](C)c1cc2cnc(Nc3ccc(N4CCNCC4)nn3)nc2c(NCC2CCOC2)n1 (some centres unmarked) [Compound 321] | – | – | < 10 | ≥ 100 |
| C[C@@H](O)c1cc2cnc(Nc3ccc(N4CCNCC4)cn3)nc2c(N[C@@H]2CCOC2)n1 [Compound 995] | < 10 | ≥ 100 | – | – |
| CO[C@H](C)c1cc2cnc(Nc3ccc(CN4CCNCC4)cn3)nc2c(NCC2CCOCC2)n1 [Compound 360] | – | – | < 10 | ≥ 100 |
| CC(O)CN1CCN(c2ccc(Nc3ncc4cc([C@@H](C)O)nc(NC(C)C)c4n3)nn2)CC1 (some centres unmarked) [Compound 637] | < 10 | ≥ 100 | – | – |
| CC(C)Nc1nc(C(F)F)cc2cnc(Nc3ccc(CN4CCNCC4)cn3)nc12 [Compound 47] | – | – | < 10 | 10 to 100 |
| CC(C)Nc1nc(C(C)O)cc2cnc(Nc3ccc(N4CCC(CCCO)CC4)cn3)nc12 (centres unmarked) [Compound 75] | – | – | < 10 | ≥ 100 |
| CCCCNc1nc(C(C)=O)cc2cnc(Nc3ccc(CN4CCNCC4)cn3)nc12 [Compound 911] | < 10 | ≥ 100 | – | – |
| CC(C)Nc1nc(C(F)F)cc2cnc(Nc3ccc(CN4CCC(O)CC4)cn3)nc12 [Compound 142] | – | – | < 10 | 10 to 100 |
| C[C@@H](O)c1cc2cnc(Nc3ccc(CN4CCC(C(=O)O)CC4)cn3)nc2c(NC(C)(C)C)n1 [Compound 837] | < 10 | 10 to 100 | – | – |
| C[C@@H](O)c1cc2cnc(Nc3ccc(N4CCNCC4)cn3)nc2c(N[C@H]2CCOC2)n1 [Compound 994] | < 10 | ≥ 100 | – | – |
| CCCNc1nc([C@@H](C)O)cc2cnc(Nc3ccc4c(n3)CCN(C(=O)CO)C4)nc12 [Compound 1116] | < 10 | ≥ 100 | – | – |
| CC(C)Nc1nc(C(F)F)cc2cnc(Nc3ccc(C(=O)N4CCOCC4)cn3)nc12 [Compound 169] | – | – | < 10 | 10 to 100 |

| Structure (SMILES) | IC50 [1, 3] [nM] | IC50 [2, 4] [nM] | IC50 [1, 5] [nM] | IC50 [2, 6] [nM] |
| --- | --- | --- | --- | --- |
| CC(C)Nc1nc([C@@H](C)O)cc2cnc(Nc3ccc(CC(=O)N4CCNC5(CC5)C4)cn3)nc12 [Compound 669] | 10 to 100 | ≥ 100 | – | – |
| CCNc1nc(C2(C)COC2)cc2cnc(Nc3ccc(CN4CCNCC4)cn3)nc12 [Compound 1107] | < 10 | ≥ 100 | – | – |
| CC(C)Nc1nc(C(F)F)cc2cnc(Nc3ccc(CN(C)C(N)=O)cn3)nc12 [Compound 185] | – | – | < 10 | 10 to 100 |
| CNc1nc(C(F)F)cc2cnc(Nc3ccc(N4CCNCC4)cn3)nc12 [Compound 19] | – | – | < 10 | ≥ 100 |
| Cc1c(C(F)F)nc(NC(C)C)c2nc(Nc3ccc(N4CCNCC4)cn3)ncc12 [Compound 60] | – | – | < 10 | ≥ 100 |
| CC(C)Nc1nc([C@@H](C)O)cc2cnc(Nc3ccc(N4CCN(C(C)C)CC4)nn3)nc12 [Compound 585] | – | – | < 10 | ≥ 100 |
| COCC(C)(C)Nc1nc([C@@H](C)O)cc2cnc(Nc3ccc(CN4CCC(C(=O)O)CC4)cn3)nc12 [Compound 197] | – | – | 10 to 100 | ≥ 100 |
| CCCNc1nc([C@@H](C)O)cc2cnc(Nc3ccc4c(n3)CCN(C(=O)OCCN(C)C)C4)nc12 [Compound 1141] | < 10 | ≥ 100 | – | – |
| CO[C@H](C)c1cc2cnc(Nc3ccc(CN4CCN(CCO)CC4)cn3)nc2c(N[C@H](C)CO)n1 [Compound 914] | < 10 | ≥ 100 | – | – |
| CCNc1nc(C(C)=O)cc2cnc(Nc3ccc(N4CCNCC4)cn3)nc12 [Compound 58] | – | – | 10 to 100 | ≥ 100 |
| CO[C@H](C)c1cc2cnc(Nc3ccc(N4CC5(CNC5)CC4=O)cn3)nc2c(NC(C)C)n1 [Compound 511] | – | – | < 10 | 10 to 100 |
| CC(C)Nc1nc(C(F)F)c(F)c2cnc(Nc3ccc(N4CCNCC4)cn3)nc12 [Compound 55] | – | – | < 10 | 10 to 100 |
| CC(C)Nc1nc([C@@H](C)O)cc2cnc(Nc3ccc(OCC4CNC4)nn3)nc12 [Compound 579] | – | – | < 10 | ≥ 100 |
| CC(C)Nc1nc(C2CCOC2)cc2cnc(Nc3ccc4c(n3)CCN(CCO)C4)nc12 (centres unmarked) [Compound 1229] | < 10 | ≥ 100 | – | – |
| CCNc1nc([C@@H](C)O)c(C)c2cnc(Nc3ccc(CN4CCN(CCO)CC4)cn3)nc12 [Compound 1168] | < 10 | ≥ 100 | – | – |
| C[C@@H](O)c1cc2cnc(Nc3ccc(N4CCNCC4)nn3)nc2c(N[C@H]2CCCOC2)n1 [Compound 253] | – | – | < 10 | ≥ 100 |
| CC(C)Nc1nc([C@@H](C)O)cc2cnc(Nc3ccc(C4CCN(C(C)(C)C(=O)O)CC4)cn3)nc12 [Compound 796] | < 10 | ≥ 100 | – | – |
| C[C@@H](O)c1cc2cnc(Nc3ccc4c(n3)CCN(C(=O)CO)C4)nc2c(NC2CCC(C)(C)CC2)n1 [Compound 654] | < 10 | ≥ 100 | – | – |
| CC(=O)c1cc2cnc(Nc3ccc(N4CCNCC4)cn3)nc2c(NC2CCCC2)n1 [Compound 57] | – | – | < 10 | ≥ 100 |
| CC(O)c1cc2cnc(Nc3ccc(N4CCNCC4)cn3)nc2c(NC2CCC2)n1 (centres unmarked) [Compound 48] | – | – | < 10 | ≥ 100 |

| Structure (SMILES) | IC50 [1, 3] [nM] | IC50 [2, 4] [nM] | IC50 [1, 5] [nM] | IC50 [2, 6] [nM] |
| --- | --- | --- | --- | --- |
| C[C@@H](O)c1cc2cnc(Nc3ccc(N4CCNCC4=O)cn3)nc2c(NC2CCC2)n1 [Compound 1045] | < 10 | ≥ 100 | – | – |
| CC(C)Nc1nc([C@@H](C)O)cc2cnc(Nc3ccc(N4CCN(C[C@H](C)O)CC4)nn3)nc12 [Compound 676, (S)-1-(4-(6-((6-((R)-1-hydroxyethyl)-8-(isopropylamino)pyrido[3,4-d]pyrimidin-2-yl)amino)pyridazin-3-yl)piperazin-1-yl)propan-2-ol] | < 10 | ≥ 100 | – | – |
| CO[C@H](C)c1cc2cnc(Nc3ccc(CN4CCNCC4)cn3)nc2c(N[C@@H]2CCCOC2)n1 [Compound 301] | – | – | < 10 | ≥ 100 |
| CCNc1nc([C@@H](C)O)cc2cnc(Nc3ccc(CN4CCN(C[C@@H](C)O)CC4)cn3)nc12 [Compound 977] | < 10 | ≥ 100 | – | – |
| C[C@@H](O)c1cc2cnc(Nc3ccc(N4CCNCC4=O)cn3)nc2c(NC2CCC(C)(C)CC2)n1 [Compound 658] | < 10 | ≥ 100 | – | – |
| O=C(CO)N1CCc2nc(Nc3ncc4cc(C5CCOC5)nc(N[C@H]5CC[C@H](O)CC5)c4n3)ccc2C1 (some centres unmarked) [Compound 1145] | < 10 | ≥ 100 | – | – |
| CO[C@H](C)c1cc2cnc(Nc3ccc(OCCCN(C)C)cn3)nc2c(NC(C)C)n1 [Compound 283] | – | – | < 10 | ≥ 100 |
| CC(C)Nc1nc([C@@H](C)O)cc2cnc(Nc3ccc(N4C(=O)CNCC4C)cn3)nc12 (some centres unmarked) [Compound 1033] | < 10 | ≥ 100 | – | – |
| COCC(C)(C)Nc1nc([C@@H](C)O)cc2cnc(Nc3ccc(NCCO)nn3)nc12 [Compound 235] | – | – | 10 to 100 | ≥ 100 |
| CC(C)Nc1nc([C@@H](C)O)cc2cnc(Nc3ccc(N4CCN(CCO)CC4=O)cn3)nc12 [Compound 597] | – | – | < 10 | ≥ 100 |
| CC(O)c1cc2cnc(Nc3ccc(N4CCNCC4)cn3)nc2c(NCC(F)(F)F)n1 (centres unmarked) [Compound 40] | – | – | < 10 | ≥ 100 |
| CN(C)CCOc1ccc(Nc2ncc3cc(C(F)F)nc(N[C@H]4CC[C@H](O)CC4)c3n2)nc1 [Compound 388] | – | – | < 10 | ≥ 100 |
| CC(C)Nc1nc([C@@H](C)O)cc2cnc(Nc3ccc(CC4CCNCC4)cn3)nc12 [Compound 950] | < 10 | ≥ 100 | – | – |
| CC(C)CN1CCC(=O)N(c2ccc(Nc3ncc4cc([C@@H](C)O)nc(NC(C)C)c4n3)nc2)CC1 [Compound 632] | < 10 | ≥ 100 | – | – |
| CC(C)Nc1nc([C@@H](C)O)cc2cnc(Nc3ccc(N4CCC(CO)CC4)nn3)nc12 [Compound 660] | < 10 | ≥ 100 | – | – |
| CC(C)Nc1nc([C@@H](C)O)cc2cnc(Nc3ccc(N4CCN(C(C)C#N)CC4=O)cn3)nc12 (some centres unmarked) [Compound 936] | < 10 | ≥ 100 | – | – |
| CC(C)Nc1nc(C(F)F)c(Cl)c2cnc(Nc3ccc(N4CCNCC4=O)cn3)nc12 [Compound 850] | 10 to 100 | 10 to 100 | – | – |
| CC(C)Nc1nc(C(F)F)cc2cnc(Nc3ccc(CN4CCC(C(=O)O)CC4)cn3)nc12 [Compound 129] | – | – | < 10 | 10 to 100 |
